Starred links: 1 amine or outer side, 2 acyl side, 3 side chain; linkers in the order of their positions; H or OH if unused. Positions of bridges follow the written chain, without caps; N, C: chain ends. Non-standard residues stand in square brackets, D forms with d. Residues, ends and D or L forms follow the SMILES beside them. Leu(3R-O(AcLeu(3R-OH))) = CC(=O)N[C@H](C(=O)O[C@H](C(C)C)[C@H](N)C(=O)O)[C@H](O)C(C)C; X1 = CO[C@H](C)C(C(=O)[*:2])N(C)[*:1]; dPhLac = O=C(O)[C@H](O)Cc1ccccc1; NMeA = CN[C@@H](C)C(=O)O; NMeDha = C=C(NC)C(=O)O
Tests used:
[1] = system: methacholine-induced airway contraction; experiment: Inhibitory action of intratracheal administration on the methacholine-induced airway contraction; type: in vivo, SD male rats; conditions: rats; for airway contraction inhibitory rate: 1 hour before methacholine 30 μg/kg i.v., vs saline group
Protocol: SD male rats (Charles River Laboratories Japan, Inc.) were used in experiments. Urethane (1.2 g/kg) was administered intraperitoneally to the rats for anesthesia. Using a metal canula for intratracheal administration, test compounds (0.3, 1, and 3 μg/kg) or physiological saline was administered intratracheally (3 or 4 animals) at a volume of 0.5 mL/kg. Cannulation for intravenous administration was carried out in the external jugular vein of the rats. A tracheostomy cannula was inserted through an incision in the trachea and mechanical ventilation (10 mL/kg, 90 times/min) was carried out using a Breathing Analysis Computer System (flexiVent, SCIREQ Inc.). The mechanical ventilator circuit was connected with a pressure transducer (TP-400T, Nihon Kohden Corporation) and the change in airway pressure was measured. The airway pressure signal was amplified with a strain pressure amplifier (AP-601G, Nihon Kohden Corporation) and recorded on chart paper by a thermal pen recorder (WT-685G, Nihon Kohden Corporation, or LINEARCORDER F WR3701, Graphtec). The body temperature of the rats was maintained at 37° C. using a body temperature-maintaining device (BWT-100, Bio Research
Center). At 1 hour after intratracheal administration of the test compound, a solution of acetyl-β-methacholine chloride in physiological saline (30 μg/kg, acetylcholine β-methacholine chloride=manufactured by SIGMA Co.) was administered intravenously to induce the airway contraction response. The airway contraction inhibitory rate of the test compound was calculated by comparing the airway pressure increase rate (%) with one obtained by intratracheal administration of physiological saline, and ED50 values were determined.

carotid artery pressure = experiment: Action on the carotid pressure by intratracheal administration; type: in vivo, SD male rats; conditions: rats
Protocol: SD male rats (Charles River Laboratories Japan, Inc.) were used in experiments. Urethane (1.2 g/kg) was administered intraperitoneally to the rats for anesthesia. Cannulation for […] was carried out in the carotid artery and a pressure transducer (TP-400T, Nihon Kohden Corporation) was connected. The cannula for measuring blood pressure and a pressure transducer were filled with 5% heparin physiological saline. The pressure signal was amplified with a strain pressure amplifier (AP-601G, Nihon Kohden Corporation) and recorded on chart paper by a thermal pen recorder (WT-685G, Nihon Kohden Corporation). The body temperature of the rats was maintained at 37° C. using a body temperature-maintaining device (BWT-100, Bio Research Center). The trachea was exposed, and using needles (27 G), the test compounds (30 or 100 μg/kg) at a volume of 0.5 mL/kg or physiological saline was administered by direct intratracheal injection. For the group administered with 30 μg/kg, 5 animals were used, for the group administered with 100 μg/kg, 1 animal was used, and for the group administered with physiological saline, 3 animals were used. For 30 minutes after intratracheal administration, a mean blood pressure was measured.

[2] = system: human platelet aggregation caused by ADP; conditions: Patent Citation 1, Non-Patent Citation 1; cited from earlier work
Gq and G11 = conditions: Non-Patent Citation 3; cited from earlier work
G15 and G16 = conditions: Non-Patent Citation 3; cited from earlier work
[3] = intratracheal 100 μg/kg, 1 animal

SMILES: C=C1C(=O)N[C@@H](C)C(=O)N(C)[C@@H](C)C(=O)N[C@@H]([C@H](OC(=O)[C@@H](NC(C)=O)[C@H](O)C(C)C)C(C)C)C(=O)N(C)C([C@@H](C)OC)C(=O)O[C@H](C)[C@H](NC(C)=O)C(=O)O[C@H](Cc2ccccc2)C(=O)N1C (stereo partly drawn) [Ref 1] (Ac-T[dPhLac][NMeDha]A[NMeA][Leu(3R-O(AcLeu(3R-OH)))][X1]; ester 1-C)
- ED50 ([1]; Rattus norvegicus, intratracheal, calculated from three points, read-out: ED50 value of inhibition of methacholine-induced airway contraction): 0.73 µg/kg
- airway contraction inhibitory rate ([1]; intratracheal 0.3 μg/kg): 32%
- airway contraction inhibitory rate ([1]; intratracheal 1 μg/kg): 45%
- airway contraction inhibitory rate ([1]; intratracheal 3 μg/kg): 98%
- amount having no action on the carotid artery pressure (carotid artery pressure; intratracheal): at least 30 μg/kg
- Reduction in blood pressure After 10 min (carotid artery pressure; intratracheal 30 μg/kg): 7±5.2 mmHg
- Reduction in blood pressure Max in 30 min (carotid artery pressure; intratracheal 30 μg/kg): 22±3.3 mmHg
- reduction in blood pressure compared with physiological saline group (carotid artery pressure; intratracheal 30 μg/kg): no significant difference
- reduction in blood pressure (in words) (carotid artery pressure; intratracheal 100 μg/kg): remarkable reduction in blood pressure
- Reduction in blood pressure After 10 min (carotid artery pressure; [3]): 65 mmHg
- Reduction in blood pressure Max in 30 min (carotid artery pressure; [3]): 95 mmHg
- gap between maximum amount having no action on carotid artery pressure and ED50 of inhibitory action on airway contraction (carotid artery pressure; intratracheal, 30 μg/kg vs 0.73 μg/kg): at least 40 times
- human platelet aggregation caused by ADP [2]: inhibits
- inhibition of Gq and G11 (Gq and G11): strongly inhibits
- inhibition of G15 and G16 (G15 and G16): does not inhibit

From patent US20110207655A1, “CYCLIC DEPSIPEPTIDE COMPOUND AND USE THEREOF” (Astellas Pharma Inc., priority 2008, published 2011)
